Assay: Hydrolysis rate / drug release rate of the compounds (release of JAK inhibitor, HPLC)
Type: physicochemical
Settings: % release of JAK inhibitor from sample in acetonitrile/water=7/3 (v/v), 37° C. constant temperature shaker, sampled days 1-4, HPLC
Description: Analysis Method for Hydrolysis Rate of Compounds of the Present Invention
1. Preparation of Standard Working Curve Solution
(§1) About 10 mg of JAK inhibitors (tofacitinib and baricitinib) reference substances were weighed into a 25 mL volumetric flask, acetonitrile/water=7/3 (v/v) was added to dissolve and dilute to the marked volume, serving as a stock solution. The stock solution was diluted with a suitable dilution factor to obtain linear solutions of each concentration: 0.0002 mg/mL, 0.0004 mg/mL, 0.004 mg/mL, 0.04 mg/mL, and 0.08 mg/mL.
as §1, with “(Oclacitinib, Ruxolitinib, Delgocitinib,” for “(tofacitinib”, “Upadacitinib)” for “baricitinib)”
2. Preparation of Sample Solution
About 5 mg of the sample (the compound prepared in the present invention) was weighed into a 20 mL volumetric flask, acetonitrile/water=7/3 (v/v) was added to dissolve and dilute to the marked volume, serving as a stock solution. An appropriate amount of HPLC was loaded as the 0-day sample. The test solution was sealed with a sealing film and placed in a 37° C. constant temperature shaker. The test samples were taken at the same time on days 1, 2, 3, and 4 respectively. the release amount of JAK inhibitor in the sample was calculated according to the sample weight and JAK inhibitor standard curve.
3. Calculation Formula % Release of JAK Inhibitor r=100%×((AJAK Inhibitor−b)/a)/((W/20×M2/M1) wherein • AJAK inhibitor is the peak area of JAK inhibitor in the sample chromatogram • b is the intercept of the standard curve M1 is the molecular weight of the sample a is the slope of the standard curve
W is the sample weight (mg) M2 is the molecular weight of the JAK inhibitor
4. Chromatographic Conditions

SMILES	Release Rate (%/day)
CC(C)Cc1ccc(C(C)C(=O)n2ccc3c(N(C)[C@H]4CN(C(=O)CC#N)CC[C@H]4C)ncnc32)cc1 (stereo partly drawn) [Ex. 1, 3-((3R,4R)-3-((7-(2-(4-isobutylphenyl)propanoyl)-7H-pyrrolo [2,3-d]pyrimidin-4-yl) (methyl)amino)-4-methylpiperidin-1-yl)-3-oxopropanenitrile]	8.26
CC(C)Cc1ccc([C@H](C)C(=O)OCn2ccc3c(N(C)[C@H]4CN(C(=O)CC#N)CC[C@H]4C)ncnc32)cc1 [Ex. 3]	0.05
Cc1cccc(Nc2ccccc2C(=O)n2ccc3c(N(C)[C@H]4CN(C(=O)CC#N)CC[C@H]4C)ncnc32)c1C [Ex. 4, 3-((3R,4R)-3-((7-(2-((2,3-dimethylphenyl)amino)benzoyl)-7H-pyrrolo[2,3-d]pyrimidin-4-yl)(methyl)amino)-4-methylpiperidin-1-yl)-3-oxopropanenitrile]	3.32
COc1ccc2cc([C@H](C)C(=O)n3ccc4c(N(C)[C@H]5CN(C(=O)CC#N)CC[C@H]5C)ncnc43)ccc2c1 [Ex. 6, 3-((3R, 4R)-3-((7-((S)-2-(6-methoxynaphthalen-2-yl)propanoyl)-7H-pyrrolo[2,3-d]pyrimidin-4-yl) (methyl)amino)-4-methylpiperidin-1-yl)-3-oxopropanenitrile]	9.82
CC(C(=O)n1ccc2c(N(C)[C@H]3CN(C(=O)CC#N)CC[C@H]3C)ncnc21)c1cccc(C(=O)c2ccccc2)c1 (stereo partly drawn) [Ex. 7, 3-((3R,4R)-3-((7-(2-(3-benzoylphenyl)propanoyl)-7H-pyrrolo[2,3-d]pyrimidin-4-yl) (methyl)amino)-4-methylpiperidin-1-yl)-3-oxopropanenitrile]	15.65
CC(C(=O)n1ccc2c(N(C)[C@H]3CN(C(=O)CC#N)CC[C@H]3C)ncnc21)c1ccc(-c2ccccc2)c(F)c1 (stereo partly drawn) [Ex. 8, 3-((3R, 4R)-3-((7-(2-(2-fluoro-[1, 1′-biphenyl]-4-yl)propanoyl)-7H-pyrrolo[2,3-d]pyrimidin-4-yl)(methyl)amino)-4-methylpiperidin-1-yl)-3-oxopropanenitrile]	14.77
C[C@@H]1CCN(C(=O)CC#N)C[C@@H]1N(C)c1ncnc2c1ccn2C(=O)Cc1ccccc1Nc1c(Cl)cccc1Cl [Ex. 9]	13.49
CC(C(=O)n1ccc2c(N(C)[C@H]3CN(C(=O)CC#N)CC[C@H]3C)ncnc21)c1cccc(Oc2ccccc2)c1 (stereo partly drawn) [Ex. 10, 3-((3R,4R)-4-methyl-3-(methyl (7-(2-(3-phenoxyphenyl)propanoyl)-7H-pyrrolo [2,3-d]pyrimidin-4-yl)amino)piperidin-1-yl)-3-oxopropanenitrile]	11.25
CC(C(=O)n1ccc2c(N(C)[C@H]3CN(C(=O)CC#N)CC[C@H]3C)ncnc21)c1ccc(CC2CCCC2=O)cc1 (stereo partly drawn) [Ex. 11, 3-((3R,4R)-4-methyl-3-(methyl (7-(2-(4-((2-oxocyclopentyl)methyl)phenyl)propanoyl)-7H-pyrrolo[2,3-d]pyrimidin-4-yl)amino)piperidin-1-yl)-3-oxopropanenitrile]	9.17
CC(=O)Nc1ccc(CC(=O)n2ccc3c(N(C)[C@H]4CN(C(=O)CC#N)CC[C@H]4C)ncnc32)cc1 [Ex. 13, N-(4-(2-(4-(((3R, 4R)-1-(2-cyanoacetyl)-4-methylpiperidin-3-yl) (methyl)amino)-7H-pyrrolo[2,3-d]pyrimidin-7-yl)-2-oxoethyl)phenyl)acetamide]	12.18
CCc1cccc2c3c([nH]c12)C(CC)(CC(=O)n1ccc2c(N(C)[C@H]4CN(C(=O)CC#N)CC[C@H]4C)ncnc21)OCC3 (stereo partly drawn) [Ex. 14, 3-((3R,4R)-3-((7-(2-(1,8-diethyl-1,3,4,9-tetrahydropyrano[3,4-b]indol-1-yl)acetyl)-7H-pyrrolo[2,3-d]pyrimidin-4-yl) (methyl)amino)-4-methylpiperidin-1-yl)-3-oxopropanenitrile]	0.98
CC(=O)Oc1ccccc1C(=O)n1ccc2c(N(C)[C@H]3CN(C(=O)CC#N)CC[C@H]3C)ncnc21 [Ex. 15, 2-(4-((3R, 4R)-1-(2-cyanoacetyl)-4-methylpiperidin-3-yl) (methyl)amino)-7H-pyrrolo[2,3-d] pyrimidine-7-carbonyl)phenyl acetate]	1.86
C[C@@H]1CCN(C(=O)CC#N)C[C@@H]1N(C)c1ncnc2c1ccn2C(=O)[C@@H](NC(=O)OC(C)(C)C)c1ccccc1 [Ex. 16, Tert-butyl ((S)-2-(4-(((3R, 4R)-1-(2-cyanoacetyl)-4-methylpiperidin-3-yl) (methyl)amino)-7H-pyrrolo[2,3-d]pyrimidin-7-yl)-2-oxo-1-phenylethyl)carbamate]	39.31
CCS(=O)(=O)N1CC(CC#N)(n2cc(-c3ncnc4c3ccn4C(=O)[C@@H](C)c3ccc4cc(OC)ccc4c3)cn2)C1 [Ex. 18, (S)-2-(1-(ethylsulfonyl)-3-(4-(7-(2-(6-methoxynaphthalen-2-yl)propanoyl)-7H-pyrrolo [2,3-d]pyrimidin-4-yl)-1H-pyrazol-1-yl)azetidin-3-yl) acetonitrile]	2.97
CCS(=O)(=O)N1CC(CC#N)(n2cc(-c3ncnc4c3ccn4C(=O)C(C)c3cccc(C(=O)c4ccccc4)c3)cn2)C1 (stereo not drawn) [Ex. 19, 2-(3-(4-(7-(2-(3-benzoylphenyl)propanoyl)-7H-pyrrolo [2,3-d]pyrimidin-4-yl)-1H-pyrazol-1-yl)-1-(ethylsulfonyl)azetidin-3-yl) acetonitrile]	6.25
CCS(=O)(=O)N1CC(CC#N)(n2cc(-c3ncnc4c3ccn4C(=O)C(C)c3ccc(-c4ccccc4)c(F)c3)cn2)C1 (stereo not drawn) [Ex. 20, 2-(1-(ethylsulfonyl)-3-(4-(7-(2-(2-fluoro-[1, 1′-biphenyl]-4-yl)propanoyl)-7H-pyrrolo [2,3-d]pyrimidin-4-yl)-1H-pyrazol-1-yl)azetidin-3-yl) acetonitrile]	5.06
CCS(=O)(=O)N1CC(CC#N)(n2cc(-c3ncnc4c3ccn4C(=O)C(C)c3cccc(Oc4ccccc4)c3)cn2)C1 (stereo not drawn) [Ex. 21, 2-(1-(Ethylsulfonyl)-3-(4-(7-(2-(3-phenoxyphenyl)propanoyl)-7H-pyrrolo [2,3-d]pyrimidin-4-yl)-1H-pyrazol-1-yl)azetidin-3-yl) acetonitrile]	4.6
CCS(=O)(=O)N1CC(CC#N)(n2cc(-c3ncnc4c3ccn4C(=O)C(C)c3ccc(CC4CCCC4=O)cc3)cn2)C1 (stereo not drawn) [Ex. 22]	2.75
CCS(=O)(=O)N1CC(CC#N)(n2cc(-c3ncnc4c3ccn4C(=O)Cc3c(C)n(C(=O)c4ccc(Cl)cc4)c4ccc(OC)cc34)cn2)C1 [Ex. 23, 2-(3-(4-(7-(2-(1-(4-chlorobenzoyl)-5-methoxy-2-methyl-1H-indol-3-yl)acetyl)-7H-pyrrolo [2,3-d]pyrimidin-4-yl)-1H-pyrazol-1-yl)-1-(ethylsulfonyl)azetidin-3-yl) acetonitrile]	7.63
CCS(=O)(=O)N1CC(CC#N)(n2cc(-c3ncnc4c3ccn4C(=O)Cc3ccc(NC(C)=O)cc3)cn2)C1 [Ex. 24, N-(4-(2-(4-(1-(3-(cyanomethyl)-1-(ethylsulfonyl)azetidin-3-yl)-1H-pyrazol-4-yl)-7H-pyrrolo [2,3-d]pyrimidin-7-yl)-2-oxoethyl)phenyl) acetamide]	5.96
CCc1cccc2c3c([nH]c12)C(CC)(CC(=O)n1ccc2c(-c4cnn(C5(CC#N)CN(S(=O)(=O)CC)C5)c4)ncnc21)OCC3 (stereo not drawn) [Ex. 25, 2-(3-(4-(7-(2-(1,8-diethyl-1,3,4,9-tetrahydropyrano [3,4-b]indol-1-yl)acetyl)-7H-pyrrolo [2,3-d]pyrimidin-4-yl)-1H-pyrazol-1-yl)-1-(ethylsulfonyl)azetidin-3-yl) acetonitrile]	0.68
CCS(=O)(=O)N1CC(CC#N)(n2cc(-c3ncnc4c3ccn4C(=O)[C@@H](NC(=O)OC(C)(C)C)c3ccccc3)cn2)C1 [Ex. 26, Tert-butyl (S)-(2-(4-(1-(3-(cyanomethyl)-1-(ethylsulfonyl)azetidin-3-yl)-1H-pyrazol-4-yl)-7H-pyrrolo [2,3-d]pyrimidin-7-yl)-2-oxo-1-phenylethyl) carbamate]	36.19
CCC(C(=O)n1ccc2c(-c3cnn(C4(CC#N)CN(S(=O)(=O)CC)C4)c3)ncnc21)c1ccc(N2Cc3ccccc3C2=O)cc1 (stereo not drawn) [Ex. 30, 2-2-(1-(Ethylsulfonyl)-3-(4-(7-(2-(4-(1-oxoisoindolin-2-yl)phenyl)butanoyl)-7H-pyrrolo [2,3-d]pyrimidin-4-yl)-1H-pyrazol-1-yl)azetidin-3-yl) acetonitrile]	1.63
COc1ccc2cc([C@H](C)C(=O)n3ccc4c(-c5cnn([C@H](CC#N)C6CCCC6)c5)ncnc43)ccc2c1 [Ex. 31]	3.08
